Measured values: the supplement of paper PMC10307832

What was measured:
Experiment in all cases: relative viability (nuclei count vs DMSO), 5 days (fraction); higher = more cells survive
Palbociclib + Lapatinib = compound: CC(=O)c1c(C)c2cnc(Nc3ccc(N4CCNCC4)cn3)nc2n(C2CCCC2)c1=O [Palbociclib] + CS(=O)(=O)CCNCc1ccc(-c2ccc3ncnc(Nc4ccc(OCc5cccc(F)c5)c(Cl)c4)c3c2)o1 [Lapatinib] (partner 2 µM)
Procedure, shortened: (§1)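 Dosing by pin tool came one day after lung cancer cell lines were seeded in 1536-well plates, using either one drug or a fixed anchor-drug dose plus five library-drug doses (not always all listed) in √10 steps. After 5 days, nuclei were counted on 4× images. Relative viability is treated-well nuclei count divided by vehicle-well nuclei count, and values are medians of duplicate plates.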

Palbociclib + Linsitinib = compound: CC(=O)c1c(C)c2cnc(Nc3ccc(N4CCNCC4)cn3)nc2n(C2CCCC2)c1=O [Palbociclib] + C[C@]1(O)C[C@@H](c2nc(-c3ccc4ccc(-c5ccccc5)nc4c3)c3c(N)nccn32)C1 [Linsitinib] (partner 1 µM)
Procedure, shortened: as §1

Palbociclib + Decitabine = compound: CC(=O)c1c(C)c2cnc(Nc3ccc(N4CCNCC4)cn3)nc2n(C2CCCC2)c1=O [Palbociclib] + Nc1ncn([C@H]2C[C@H](O)[C@@H](CO)O2)c(=O)n1 [Decitabine] (partner 2 µM)
Procedure, shortened: as §1

Palbociclib + Tozasertib = compound: CC(=O)c1c(C)c2cnc(Nc3ccc(N4CCNCC4)cn3)nc2n(C2CCCC2)c1=O [Palbociclib] + Cc1cc(Nc2cc(N3CCN(C)CC3)nc(Sc3ccc(NC(=O)C4CC4)cc3)n2)n[nH]1 [Tozasertib] (partner 0.1 µM)
Procedure, shortened: as §1

Cell Line | relative viability (Palbociclib + Lapatinib; first compound 0.01 µM) | relative viability (Palbociclib + Lapatinib; first compound 0.03162 µM) | relative viability (Palbociclib + Lapatinib; first compound 0.1 µM) | relative viability (Palbociclib + Lapatinib; first compound 0.3162 µM) | relative viability (Palbociclib + Lapatinib; first compound 1 µM) | relative viability (Palbociclib + Linsitinib; first compound 0.01 µM) | relative viability (Palbociclib + Linsitinib; first compound 0.03162 µM) | relative viability (Palbociclib + Linsitinib; first compound 0.1 µM) | relative viability (Palbociclib + Linsitinib; first compound 0.3162 µM) | relative viability (Palbociclib + Linsitinib; first compound 1 µM) | relative viability (Palbociclib + Decitabine; first compound 0.01 µM) | relative viability (Palbociclib + Decitabine; first compound 0.03162 µM) | relative viability (Palbociclib + Decitabine; first compound 0.1 µM) | relative viability (Palbociclib + Decitabine; first compound 0.3162 µM) | relative viability (Palbociclib + Decitabine; first compound 1 µM) | relative viability (Palbociclib + Tozasertib; first compound 0.01 µM) | relative viability (Palbociclib + Tozasertib; first compound 0.1 µM) | relative viability (Palbociclib + Tozasertib; first compound 0.3162 µM) | relative viability (Palbociclib + Tozasertib; first compound 1 µM) | relative viability (Palbociclib + Tozasertib; first compound 0.03162 µM)
NCI-H596 | 1.28 | 1.07 | 0.974 | 1.2 | 1.14 | 1.12 | 0.914 | 0.95 | 1.02 | 1.03 | 1.15 | 0.973 | 1.05 | 0.945 | 1.22 | 0.951 | 1 | 0.935 | 0.965 | –
NCI-H2170 | 0.29 | 0.23 | 0.245 | 0.233 | 0.25 | – | – | – | – | – | 0.503 | 0.478 | 0.446 | 0.477 | 0.45 | 0.697 | 0.737 | 0.77 | 0.655 | 0.75
NCI-H2405 | 1.04 | – | 0.819 | 0.901 | 0.761 | 0.992 | – | 0.49 | 0.808 | 0.54 | 0.781 | 0.808 | 0.691 | 0.64 | 0.605 | 0.75 | 0.663 | 0.574 | 0.509 | 0.651
HCC-366 | 1.06 | – | 0.953 | 0.91 | 0.608 | 0.482 | – | 0.506 | 0.494 | 0.344 | 0.338 | – | 0.33 | 0.334 | 0.342 | 0.135 | 0.149 | 0.129 | 0.139 | –
NCI-H1975 | 0.959 | 0.831 | 0.833 | 0.922 | 0.711 | 0.956 | 0.864 | 0.886 | 0.766 | 0.716 | 0.413 | 0.429 | 0.412 | 0.399 | 0.365 | 0.733 | 0.577 | 0.694 | 0.592 | 0.664
NCI-H1755 | 1.07 | 0.604 | 0.929 | 0.878 | 0.617 | 1.01 | 0.987 | 0.873 | 0.814 | 0.711 | 0.742 | 0.744 | 0.614 | 0.7 | 0.635 | 0.578 | 0.558 | 0.506 | 0.506 | 0.596
COR-L23 | 1.02 | 0.864 | 0.777 | 0.667 | 0.418 | 0.9 | 0.844 | 0.637 | 0.552 | 0.344 | 0.414 | 0.369 | 0.322 | 0.363 | 0.33 | 0.197 | 0.16 | 0.157 | 0.124 | 0.146
PC-3 [JPC-3] | 0.436 | 0.378 | 0.433 | 0.415 | 0.344 | 0.981 | 0.888 | 0.878 | 0.787 | 0.613 | 0.804 | 0.713 | 0.76 | 0.782 | 0.607 | 0.918 | 0.823 | 0.774 | 0.596 | 0.778
NCI-H2126 | 0.819 | 0.581 | 0.728 | 0.618 | 0.452 | 0.736 | 0.706 | 0.693 | 0.598 | 0.428 | 0.637 | 0.568 | 0.492 | 0.539 | 0.463 | 0.837 | 0.531 | 0.542 | 0.363 | 0.746
NCI-H1944 | 0.798 | 0.487 | 0.772 | 0.758 | 0.402 | 1.15 | 0.993 | 1.06 | 1.08 | 0.836 | 0.45 | 0.426 | 0.447 | 0.438 | 0.431 | 0.254 | 0.293 | 0.245 | 0.229 | 0.242
NCI-H647 | 1.26 | 0.956 | 0.778 | 0.923 | 0.525 | 1.2 | 1.01 | 0.89 | 0.941 | 0.712 | 0.408 | 0.315 | 0.356 | 0.392 | 0.337 | 0.272 | 0.266 | 0.465 | 0.435 | 0.286
NCI-H1395 | 0.867 | 0.987 | 0.943 | 0.928 | 0.688 | 1.35 | 0.968 | 0.737 | 0.887 | 0.726 | 0.741 | 0.704 | 0.656 | 0.702 | 0.641 | 0.791 | 0.627 | 0.676 | 0.635 | 0.709
LCLC-103H | – | – | – | – | – | 1.04 | 1.15 | 0.918 | 1 | 0.826 | 0.675 | 0.76 | 0.674 | 0.679 | 0.627 | 0.483 | 0.559 | 0.423 | 0.357 | 0.385
EPLC-272H | 1.14 | – | 0.71 | 0.603 | 0.718 | 1.15 | – | 0.988 | 0.999 | 0.716 | 0.4 | – | 0.322 | 0.309 | 0.324 | 0.326 | 0.331 | 0.339 | 0.42 | –
EKVX | 0.184 | 0.193 | 0.193 | 0.178 | 0.12 | 1.01 | 0.786 | 0.722 | 0.781 | 0.492 | 0.383 | – | 0.281 | 0.307 | 0.293 | 0.366 | 0.341 | 0.398 | 0.311 | 0.396
NCI-H1915 | 0.972 | 0.379 | 1.04 | 0.942 | 0.808 | 1.11 | 1.04 | 1.07 | 1.01 | 0.947 | 0.277 | – | 0.254 | 0.254 | 0.26 | 0.435 | 0.48 | 0.471 | 0.452 | 0.36
NCI-H2347 | 0.957 | 0.823 | 0.71 | 0.682 | 0.751 | 1.04 | 0.868 | 0.597 | 0.723 | 0.595 | 0.597 | 0.656 | 0.599 | 0.585 | 0.504 | 0.639 | 0.542 | 0.565 | 0.361 | –
